Values of other authors as cited in US20100035978A1, “COMBINATION OF CANNABINOIDS FOR THE TREATMENT OF PERIPHERAL NEUROPATHIC PAIN” (GW Pharma Limited, priority 2005, published 2010).

Tested on: patients taking carbamezepine

NC(=O)N1c2ccccc2C=Cc2ccccc21 [carbamezepine]
increase in the risk of blood dyscrasias (post-marketing studies): five- to eight-fold | patients with a 25% decrease in white blood cell count (usually reverses within the first 4 months of therapy): 7%
